Here are results for 33 compounds from ChEMBL document CHEMBL5260842 (J Med Chem, 2019).

Assay [1] deals with T1, von Hippel-Lindau disease tumor suppressor/Androgen receptor (Homo sapiens, UniProt P10275+P40337). The assay is described as follows: Protac activity at VHL/AR in AR-positive human LNCaP cells assessed as induction of androgen receptor degradation at 0.01 uM incubated for 6 hrs by Western blot analysis (reference value: 0%). Type of assay: cell-based.
Assay [2] concerns the target T1, von Hippel-Lindau disease tumor suppressor/Androgen receptor. The assay is described as follows: Protac activity at VHL/AR in AR-positive human LNCaP cells assessed as induction of androgen receptor degradation at 0.1 uM incubated for 6 hrs by Western blot analysis (reference value: 0%). It is filed as cell-based. A general note: A western blot detects proteins with antibodies after separation by electrophoresis.

The subject of another assay is CWR22R. The assay is described as follows: Cytotoxicity against AR-positive human 22Rv1 cells assessed as inhibition of cell growth incubated for 7 days in regular culture medium by WST-8 assay. Type of assay: functional, cell-based. The settings on record: 22Rv1, 168 h. A general note: Tetrazolium assays rely on reduction of a dye to a coloured formazan, in cell work by metabolically active cells.

The test system of the next assay is LNCaP. Kind of assay: Cytotoxicity against AR-positive human LNCaP cells assessed as inhibition of cell growth incubated for 7 days in presence of AR agonist, R1881 in charcoal stripped medium by WST-8 assay. It is filed as functional, cell-based. The settings on record: 168 h.
The next assay deals with VCaP. The assay is described as follows: Cytotoxicity against AR-positive human VCaP cells assessed as inhibition of cell growth incubated for 7 days in presence of AR agonist, R1881 in charcoal stripped medium by WST-8 assay. The following applies: 168 h. It is filed as functional, cell-based.

T1 sequence (P10275 whole entry, looked up): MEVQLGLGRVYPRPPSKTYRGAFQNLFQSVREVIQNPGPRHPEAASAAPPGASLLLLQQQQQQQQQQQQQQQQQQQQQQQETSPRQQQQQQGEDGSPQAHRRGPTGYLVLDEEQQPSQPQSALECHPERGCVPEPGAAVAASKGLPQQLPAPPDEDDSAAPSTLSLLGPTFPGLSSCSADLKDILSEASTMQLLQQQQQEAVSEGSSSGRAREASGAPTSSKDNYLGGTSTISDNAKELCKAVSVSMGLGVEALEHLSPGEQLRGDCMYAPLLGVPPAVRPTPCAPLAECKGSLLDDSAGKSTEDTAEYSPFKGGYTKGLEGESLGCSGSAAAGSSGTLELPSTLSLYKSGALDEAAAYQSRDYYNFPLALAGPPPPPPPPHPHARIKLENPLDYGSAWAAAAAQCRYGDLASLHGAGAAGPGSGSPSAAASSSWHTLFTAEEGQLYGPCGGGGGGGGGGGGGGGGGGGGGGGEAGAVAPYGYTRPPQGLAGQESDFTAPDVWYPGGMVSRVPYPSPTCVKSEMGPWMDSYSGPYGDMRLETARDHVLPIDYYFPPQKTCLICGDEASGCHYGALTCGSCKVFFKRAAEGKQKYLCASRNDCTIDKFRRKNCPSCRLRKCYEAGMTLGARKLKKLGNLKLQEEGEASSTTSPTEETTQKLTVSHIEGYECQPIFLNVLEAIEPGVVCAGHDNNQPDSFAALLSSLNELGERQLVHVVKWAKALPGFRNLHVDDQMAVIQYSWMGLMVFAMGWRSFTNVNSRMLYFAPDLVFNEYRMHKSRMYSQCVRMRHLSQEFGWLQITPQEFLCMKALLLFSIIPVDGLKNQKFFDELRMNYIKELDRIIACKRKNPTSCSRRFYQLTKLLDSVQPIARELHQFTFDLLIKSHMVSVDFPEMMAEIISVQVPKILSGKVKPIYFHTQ
T1 sequence (P40337 whole entry, looked up): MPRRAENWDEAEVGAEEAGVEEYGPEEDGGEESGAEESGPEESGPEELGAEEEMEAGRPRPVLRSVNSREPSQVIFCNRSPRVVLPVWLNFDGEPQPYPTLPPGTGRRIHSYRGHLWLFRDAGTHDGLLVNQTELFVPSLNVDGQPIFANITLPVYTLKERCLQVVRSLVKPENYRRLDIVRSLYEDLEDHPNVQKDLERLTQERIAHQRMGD

Turning to `Cc1cc([C@H](C(=O)N2C[C@H](O)C[C@H]2C(=O)N[C@@H](CC(=O)NCCCCCCCCCNC(=O)c2ccc(N3C(=S)N(c4ccc(C#N)c(C(F)(F)F)c4)C(=O)C3(C)C)cc2F)c2ccc(-c3sncc3C)cc2)C(C)C)on1`, the Activity in assay [1] was 11%; in assay [2], 50%.

For the compound `CC(=O)N[C@H](C(=O)N1C[C@H](O)C[C@H]1C(=O)N[C@@H](CC(=O)N1CCC(N2CCC(C#Cc3ccc(C(=O)N[C@H]4C(C)(C)[C@H](Oc5ccc(C#N)c(Cl)c5)C4(C)C)cc3)CC2)CC1)c1ccc(-c2scnc2C)cc1)C(C)(C)C`, the Activity in assay [1] worked out at 39%; in assay [2] it was 77%.

For the compound `CC1(C)[C@H](NC(=O)c2cnn(CCO)c2)C(C)(C)[C@H]1Oc1ccc(C#N)c(Cl)c1`, the results for the IC50 in the assay with CWR22R, in the assay with LNCaP and in the assay with VCaP were over 10000 nM, 48 nM and 148 nM, respectively.

`Cc1ncsc1-c1ccc(CNC(=O)[C@@H]2C[C@@H](O)CN2C(=O)[C@@H](NC(=O)CCCNC(=O)c2ccc(N3C(=S)N(c4ccc(C#N)c(C(F)(F)F)c4)C(=O)C3(C)C)cc2F)C(C)(C)C)cc1`: the Activity in assay [2] stood at 15%.

In the case of `Cc1ncsc1-c1ccc(CNC(=O)[C@@H]2C[C@@H](O)CN2C(=O)[C@@H](NC(=O)CCCCCNC(=O)c2ccc(N3C(=S)N(c4ccc(C#N)c(C(F)(F)F)c4)C(=O)C3(C)C)cc2F)C(C)(C)C)cc1`, the Activity in assay [2] was determined as 11%.

Regarding `Cc1ncsc1-c1ccc(CNC(=O)[C@@H]2C[C@@H](O)CN2C(=O)[C@@H](NC(=O)CCCCCCCCNC(=O)c2ccc(N3C(=S)N(c4ccc(C#N)c(C(F)(F)F)c4)C(=O)C3(C)C)cc2F)C(C)(C)C)cc1`, the Activity in assay [1] amounted to 15%; in assay [2], 66%.

For the compound `Cc1ncsc1-c1ccc(CNC(=O)[C@@H]2C[C@@H](O)CN2C(=O)[C@@H](NC(=O)CCCCCCc2ccc(C#Cc3ccc(N4C(=S)N(c5ccc(C#N)c(C(F)(F)F)c5)C(=O)C4(C)C)cc3)cn2)C(C)(C)C)cc1`, the Activity in assay [1] was determined as 30%; in assay [2], 63%.

Turning to `Cc1ncsc1-c1ccc([C@H](C)NC(=O)[C@@H]2C[C@@H](O)CN2C(=O)[C@@H](NC(=O)CN2CCN(c3ccc(C#Cc4ccc(N5C(=S)N(c6ccc(C#N)c(C(F)(F)F)c6)C(=O)C5(C)C)cc4)cn3)CC2)C(C)(C)C)cc1`, the Activity in assay [2] amounted to 3%.

For `Cc1cc([C@H](C(=O)N2C[C@H](O)C[C@H]2C(=O)N[C@@H](CC(=O)N2CCC(N3CCC(C#Cc4ccc(Cc5c(C)nn(-c6ccc(C#N)c(Cl)c6)c5C)cc4)CC3)CC2)c2ccc(-c3scnc3C)cc2)C(C)C)on1`, the Activity in assay [2] is 65%.

As for `Cc1ncsc1-c1ccc([C@H](C)NC(=O)[C@@H]2C[C@@H](O)CN2C(=O)[C@@H](NC(=O)N2CCN(c3ccc(C#Cc4ccc(N5C(=S)N(c6ccc(C#N)c(C(F)(F)F)c6)C(=O)C5(C)C)cc4)cn3)CC2)C(C)(C)C)cc1`, in assay [2], the Activity was 0%.

Consider `Cc1cc([C@H](C(=O)N2C[C@H](O)C[C@H]2C(=O)N[C@@H](CC(=O)NCCCN2CCN(c3ccc(C#Cc4ccc(N5C(=S)N(c6ccc(C#N)c(C(F)(F)F)c6)C(=O)C5(C)C)cc4)cn3)CC2)c2ccc(-c3sncc3C)cc2)C(C)C)on1`, for which the figures for the Activity in assay [1] and in assay [2] were 27% and 75%, respectively.

As to `Cc1ncsc1-c1ccc([C@@H](CC(=O)N2CCC(N3CCC(C#Cc4ccc(C(=O)N[C@H]5C(C)(C)[C@H](Oc6ccc(C#N)c(Cl)c6)C5(C)C)cc4)CC3)CC2)NC(=O)[C@@H]2C[C@@H](O)CN2C(=O)[C@@H](NC(=O)C2(F)CC2)C(C)(C)C)cc1`, the Activity in assay [2] was under 5%.

Take `Cc1ncsc1-c1ccc(CNC(=O)[C@@H]2C[C@@H](O)CN2C(=O)[C@@H](NC(=O)CCCCNC(=O)c2ccc(N3C(=S)N(c4ccc(C#N)c(C(F)(F)F)c4)C(=O)C3(C)C)cc2F)C(C)(C)C)cc1`: the Activity in assay [2] stood at 16%.

In the case of `Cc1ncsc1-c1ccc(CNC(=O)[C@@H]2C[C@@H](O)CN2C(=O)[C@@H](NC(=O)CCCCCCCCCCCNC(=O)c2ccc(N3C(=S)N(c4ccc(C#N)c(C(F)(F)F)c4)C(=O)C3(C)C)cc2F)C(C)(C)C)cc1`, in assay [2], the Activity amounted to 30%.

Consider `Cc1ncsc1-c1ccc(CNC(=O)[C@@H]2C[C@@H](O)CN2C(=O)[C@@H](NC(=O)CCCCCCCCCNC(=O)c2ccc(N3C(=S)N(c4ccc(C#N)c(C(F)(F)F)c4)C(=O)C3(C)C)cc2F)C(C)(C)C)cc1`, for which the Activity in assay [1] came to 10%; in assay [2], 48%.

Consider `Cc1ncsc1-c1ccc(CNC(=O)[C@@H]2C[C@@H](O)CN2C(=O)[C@@H](NC(=O)CCCCCCNC(=O)c2ccc(N3C(=S)N(c4ccc(C#N)c(C(F)(F)F)c4)C(=O)C3(C)C)cc2F)C(C)(C)C)cc1`, for which, in assay [2], the Activity was determined as 54%.

Consider `Cc1cc([C@H](C(=O)N2C[C@H](O)C[C@H]2C(=O)N[C@@H](CC(=O)N2CCC(N3CCC(C#Cc4ccc(C(=O)N[C@H]5C(C)(C)[C@H](Oc6ccc(C#N)c(Cl)c6)C5(C)C)cc4)CC3)CC2)c2ccc(-c3scnc3C)cc2)C(C)C)on1`, for which the Activity in assay [1] stood at 76%; in assay [2], 98%.

Consider `Cc1ncsc1-c1ccc([C@H](C)NC(=O)[C@@H]2C[C@@H](O)CN2C(=O)[C@@H](NC(=O)CCCCN2CCN(c3ccc(C#Cc4ccc(N5C(=S)N(c6ccc(C#N)c(C(F)(F)F)c6)C(=O)C5(C)C)cc4)cn3)CC2)C(C)(C)C)cc1`, for which the figures for the Activity in assay [1] and in assay [2] were 28% and 48%, respectively.

Turning to `Cc1ncsc1-c1ccc([C@H](CC(=O)N2CCC(N3CCC(C#Cc4ccc(C(=O)N[C@H]5C(C)(C)[C@H](Oc6ccc(C#N)c(Cl)c6)C5(C)C)cc4)CC3)CC2)NC(=O)[C@@H]2C[C@@H](O)CN2C(=O)[C@H](NC(=O)C2(F)CC2)C(C)(C)C)cc1`, the Activity in assay [2] is under 5%.

On to `Cc1ncsc1-c1ccc(CNC(=O)[C@@H]2C[C@@H](O)CN2C(=O)[C@@H](NC(=O)CCNC(=O)c2ccc(N3C(=S)N(c4ccc(C#N)c(C(F)(F)F)c4)C(=O)C3(C)C)cc2F)C(C)(C)C)cc1`, for which the Activity in assay [2] amounted to 26%.

For `Cc1ncsc1-c1ccc(CNC(=O)[C@@H]2C[C@@H](O)CN2C(=O)[C@@H](NC(=O)CCCCCCCNC(=O)c2ccc(N3C(=S)N(c4ccc(C#N)c(C(F)(F)F)c4)C(=O)C3(C)C)cc2F)C(C)(C)C)cc1`, the Activity is 8% in assay [1] and 29% in assay [2].

With `Cc1ncsc1-c1ccc([C@H](C)NC(=O)[C@@H]2C[C@@H](O)CN2C(=O)[C@@H](NC(=O)CCCN2CCN(c3ccc(C#Cc4ccc(N5C(=S)N(c6ccc(C#N)c(C(F)(F)F)c6)C(=O)C5(C)C)cc4)cn3)CC2)C(C)(C)C)cc1`, the Activity in assay [1] stood at 37%; in assay [2], 61%.

For the compound `Cc1cc([C@H](C(=O)N2C[C@H](O)C[C@H]2C(=O)N[C@@H](CC(=O)NCCCCCCCCCNC(=O)c2ccc(C(=O)N[C@H]3C(C)(C)[C@H](Oc4ccc(C#N)c(Cl)c4)C3(C)C)cc2)c2ccc(-c3scnc3C)cc2)C(C)C)on1`, the Activity in assay [1] worked out at 43%; in assay [2], 91%.

As to `Cc1ncsc1-c1ccc([C@H](CC(=O)N2CCC(N3CCC(C#Cc4ccc(C(=O)N[C@H]5C(C)(C)[C@H](Oc6ccc(C#N)c(Cl)c6)C5(C)C)cc4)CC3)CC2)NC(=O)[C@@H]2C[C@@H](O)CN2C(=O)[C@@H](NC(=O)C2(C#N)CC2)C(C)(C)C)cc1`, the Activity in assay [1] came out at 76%; in assay [2], 99%.

For the compound `Cc1cc([C@H](C(=O)N2C[C@H](O)C[C@H]2C(=O)N[C@@H](CC(=O)N2CCN(c3ccc(C#Cc4ccc(N5C(=S)N(c6ccc(C#N)c(C(F)(F)F)c6)C(=O)C5(C)C)cc4)cn3)CC2)c2ccc(-c3scnc3C)cc2)C(C)C)on1`, the Activity in assay [1] is 22%; in assay [2] it was 72%.

Regarding `Cc1cc([C@H](C(=O)N2C[C@H](O)C[C@H]2C(=O)N[C@@H](CC(=O)N2CCC(N3CCC(C#Cc4ccc(N5C(=S)N(c6cnc(C#N)c(C(F)(F)F)c6)C(=O)C56CCC6)cc4)CC3)CC2)c2ccc(-c3scnc3C)cc2)C(C)C)on1`, the results for the Activity in assay [1] and in assay [2] were 38% and 80%, respectively.

For the compound `Cc1ncsc1-c1ccc(CNC(=O)[C@@H]2C[C@@H](O)CN2C(=O)[C@@H](NC(=O)CCCCCCCCCCNC(=O)c2ccc(N3C(=S)N(c4ccc(C#N)c(C(F)(F)F)c4)C(=O)C3(C)C)cc2F)C(C)(C)C)cc1`, the Activity worked out at 11% in assay [1] and 48% in assay [2].

In the case of `Cc1ncsc1-c1ccc(CNC(=O)[C@@H]2C[C@@H](O)CN2C(=O)[C@@H](NC(=O)CCCN2CCN(c3ccc(C#Cc4ccc(N5C(=S)N(c6ccc(C#N)c(C(F)(F)F)c6)C(=O)C5(C)C)cc4)cn3)CC2)C(C)(C)C)cc1`, the Activity in assay [2] worked out at 50%.

For the compound `Cc1ncsc1-c1ccc([C@H](C)NC(=O)[C@@H]2C[C@@H](O)CN2C(=O)[C@@H](NC(=O)CCN2CCN(c3ccc(C#Cc4ccc(N5C(=S)N(c6ccc(C#N)c(C(F)(F)F)c6)C(=O)C5(C)C)cc4)cn3)CC2)C(C)(C)C)cc1`, the Activity in assay [1] was found to be 34%; in assay [2], 51%.

Turning to `Cc1cc([C@H](C(=O)N2C[C@H](O)C[C@H]2C(=O)N[C@@H](CC(=O)N2CCC(N3CCC(C#Cc4ccc(N5C(=S)N(c6ccc(C#N)c(C(F)(F)F)c6)C(=O)C5(C)C)cc4)CC3)CC2)c2ccc(-c3scnc3C)cc2)C(C)C)on1`, the Activity in assay [1] turned out to be 20%; in assay [2], 81%.

Take `Cc1ncsc1-c1ccc(CNC(=O)[C@@H]2C[C@@H](O)CN2C(=O)[C@@H](NC(=O)CCOCCOCCNC(=O)c2ccc(N3C(=S)N(c4ccc(C#N)c(C(F)(F)F)c4)C(=O)C3(C)C)cc2F)C(C)(C)C)cc1`: the Activity in assay [2] worked out at 32%.

As for `Cc1cc([C@H](C(=O)N2C[C@H](O)C[C@H]2C(=O)N[C@@H](CC(=O)N2CCC(N3CCC(C#Cc4ccc(S(=O)(=O)CC(C)(O)C(=O)Nc5ccc(C#N)c(C(F)(F)F)c5)cc4)CC3)CC2)c2ccc(-c3scnc3C)cc2)C(C)C)on1` (stereo partly drawn), the Activity in assay [2] was 18%.

For the compound `CNC(=O)c1ccc(N2C(=S)N(c3ccc(C#N)c(C(F)(F)F)c3)C(=O)C2(C)C)cc1F` [ENZALUTAMIDE], the values for the IC50 in the assay with LNCaP and in the assay with VCaP were 25 nM and 87.4 nM, respectively.
